Earlier results on one molecule are cited in patent US11331392B2, “Biodegradable thermo-responsive polymers and uses thereof” (The Trustees of Columbia University in the City of New York, priority 2014, dated 2022).

This data set deals with endothelial and tumor cells.

On to `Cc1cc(O)ccc1O` [methylhydroquinone (MHQ), methylhydroquinone], for which the “concentration range inhibiting growth of cells in culture” value is given as “micromolar range”.
